From patent publication US20020028809A1 (SUNTORY LIMITED, priority 1999, published 2002)
Where two headings read alike, the source gives them in different places.

Columns and labels:
[1] = molecular target: T1, α4β2 subtype of nicotinic acetylcholine receptors (Rattus norvegicus, UniProt P09483+P12390); test: Binding assays at α4β2 subtype of nicotinic acetylcholine receptors ([3H]-cytisine, rat brain membrane)
T1 construct: examined using rat brain membrane obtained from whole homogenized brain; from tissue; host or cells: whole brain of Fischer-344 male rats, membrane pellet
T1 sequence (P09483 31-630): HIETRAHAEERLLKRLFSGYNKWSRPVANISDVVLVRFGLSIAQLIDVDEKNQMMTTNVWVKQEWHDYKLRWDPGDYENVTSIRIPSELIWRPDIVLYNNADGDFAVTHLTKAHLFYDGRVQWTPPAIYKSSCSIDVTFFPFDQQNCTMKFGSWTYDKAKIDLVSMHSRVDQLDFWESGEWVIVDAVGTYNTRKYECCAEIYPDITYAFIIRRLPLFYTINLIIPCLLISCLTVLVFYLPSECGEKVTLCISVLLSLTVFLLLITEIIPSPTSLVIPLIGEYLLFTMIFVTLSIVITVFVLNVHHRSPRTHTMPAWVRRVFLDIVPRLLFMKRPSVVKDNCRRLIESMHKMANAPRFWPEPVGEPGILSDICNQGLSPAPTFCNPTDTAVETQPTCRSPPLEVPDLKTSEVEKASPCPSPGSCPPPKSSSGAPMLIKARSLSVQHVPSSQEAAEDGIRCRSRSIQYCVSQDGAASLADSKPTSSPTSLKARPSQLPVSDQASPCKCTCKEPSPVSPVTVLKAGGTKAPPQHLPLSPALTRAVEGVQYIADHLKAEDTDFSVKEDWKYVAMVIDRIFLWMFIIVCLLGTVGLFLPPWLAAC
T1 sequence (P12390 25-500): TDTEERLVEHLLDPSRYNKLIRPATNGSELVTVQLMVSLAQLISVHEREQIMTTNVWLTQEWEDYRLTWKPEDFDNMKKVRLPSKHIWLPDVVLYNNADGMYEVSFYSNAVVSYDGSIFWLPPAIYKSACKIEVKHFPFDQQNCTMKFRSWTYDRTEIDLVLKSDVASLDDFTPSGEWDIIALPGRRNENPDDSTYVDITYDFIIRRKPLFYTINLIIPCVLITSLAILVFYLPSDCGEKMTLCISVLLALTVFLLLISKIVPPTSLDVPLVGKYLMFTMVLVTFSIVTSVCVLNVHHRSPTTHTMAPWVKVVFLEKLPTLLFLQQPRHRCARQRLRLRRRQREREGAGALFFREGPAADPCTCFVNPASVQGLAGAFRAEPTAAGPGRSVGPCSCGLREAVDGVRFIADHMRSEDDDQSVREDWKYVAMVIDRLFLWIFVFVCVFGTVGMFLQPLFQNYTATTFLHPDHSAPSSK
Description: (§1) Methods for evaluating binding capabilities of the compounds at nicotinic acetylcholine receptors are different by subtypes of receptors. Binding capabilities of the compounds at α4β2 nicotinic acetylcholine receptors are examined using rat brain membrane obtained from whole homogenized brain, and determining the inhibiting rate of the compounds against [^3H]-cytisine binding to said brain membrane. Furthermore, the binding capabilities of the compounds at α1β1γδ nicotinic acetylcholine receptors are examined using homogenized rat muscle, and determining the inhibiting rate of the compounds against [^3H]-α-bungarotoxin binding to said muscle homogenate.
Binding assays at α4β2 Subtype of Nicotinic Acetylcholine Receptors
(1) Preparation of Rat Brain Membrane Containing α4β2 Subtype of Nicotinic Acetylcholine Receptors
Rats were housed in the breeding cage controlled of the room temperature at 23±1° C., and the humidity of 55±5% for 1 to 4 weeks. Rats (3 to 4 rats per a cage) were housed with lights on for 12 hours daily (from 7:00 to 19:00), and allowed free access to food and water.
Preparation of rat brain membrane containing α4β2 subtype of nicotinic acetylcholine receptors was performed as follow. That is, rat brains were isolated just after sacrificed by decapitation, washed with ice-cooled saline solution and then frozen at −80° C. with liquid nitrogen and stored till using. After thawing the frozen brain, the brain was homogenized in 10 volumes of ice-cooled buffer solution (50 mM of Tris-HCl, 120 mM of NaCl, 5 mM of KCl, 1 mM of MgCl2, 2mM of CaCl2; pH 7.4; 4° C.) using homogenizer (HG30, Hitachi Kohki Ltd.) for 30 seconds, and the homogenate were centrifuged under 1,000×G for 10 minutes at 4° C. The resulting supernatant was separated and the pellet was homogenized again with half volume of aforementioned prior buffer solution and centrifuged under the same conditions. Combined supernatant was further centrifuged under 40,000×G for 20 minutes at 4° C. The pellet was suspended in buffer solution and used for binding assays at receptors.
(2) Experiments of α4β2 Subtype of Nicotinic Acetylcholine Receptors Binding
Suspensions of membrane pellets containing 400-600 μg of protein were added to test tubes containing test compounds and [^3H]-cytisine (2 nM) in a final volume of 200 μl and incubated for 75 minutes in ice-cooled bath. The samples were isolated by vacuum filtration onto Whatman GF/B filters, which were prerinsed with 0.5% polyethylenimine just prior to sample filtration, using Brandel multi manifold cell harvester. The filters were rapidly washed with buffer solution (3×1 ml). The filters were counted in 3 ml of clearsol I (Nacalai Tesque Inc.).
Analyses of the experimental results were conducted using the Accufit Competition Program (Beckman Ltd.).

[2] = molecular target: T2, α1β1γδ subtype of nicotinic acetylcholine receptors (Rattus norvegicus, UniProt P18916+P25108+P25109+P25110); test: Binding assays at α1β1γδ subtype of nicotinic acetylcholine receptors ([3H]-α-bungarotoxin, rat muscle extract); details: for remaining activity at 100 µM / remaining activity at 1000 µM: read-out: control % of [3H]-α-Bgt binding
T2 construct: Native receptor, no construct: "Triton X100 (2% w/v) was added
T2 sequence (P25108 21-457): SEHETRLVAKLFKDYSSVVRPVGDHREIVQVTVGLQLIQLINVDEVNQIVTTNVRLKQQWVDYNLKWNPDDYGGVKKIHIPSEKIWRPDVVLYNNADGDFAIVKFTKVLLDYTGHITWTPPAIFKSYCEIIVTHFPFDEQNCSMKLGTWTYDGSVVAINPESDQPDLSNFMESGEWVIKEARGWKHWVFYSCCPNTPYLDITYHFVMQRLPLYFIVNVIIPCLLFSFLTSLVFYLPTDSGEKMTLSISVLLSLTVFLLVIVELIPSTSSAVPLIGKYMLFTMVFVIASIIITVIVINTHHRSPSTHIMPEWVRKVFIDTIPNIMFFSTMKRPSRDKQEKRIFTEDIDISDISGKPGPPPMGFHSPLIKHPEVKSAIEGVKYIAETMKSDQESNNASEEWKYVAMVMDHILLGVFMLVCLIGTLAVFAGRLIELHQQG
T2 sequence (P25110 22-517): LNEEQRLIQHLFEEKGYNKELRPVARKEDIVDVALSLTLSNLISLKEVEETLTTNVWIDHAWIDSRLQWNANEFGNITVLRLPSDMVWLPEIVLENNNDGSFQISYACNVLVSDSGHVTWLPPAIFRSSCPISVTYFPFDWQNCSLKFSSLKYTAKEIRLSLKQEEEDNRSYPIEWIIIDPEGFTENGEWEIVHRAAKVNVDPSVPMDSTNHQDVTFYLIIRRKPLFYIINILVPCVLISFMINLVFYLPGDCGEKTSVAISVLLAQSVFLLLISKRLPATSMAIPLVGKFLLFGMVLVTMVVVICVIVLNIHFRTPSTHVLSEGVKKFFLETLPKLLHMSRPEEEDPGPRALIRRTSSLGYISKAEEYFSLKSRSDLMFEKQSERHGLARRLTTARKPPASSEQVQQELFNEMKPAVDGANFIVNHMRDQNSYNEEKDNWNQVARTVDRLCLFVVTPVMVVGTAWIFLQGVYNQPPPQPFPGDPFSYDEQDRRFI
T2 sequence (P25109 24-501): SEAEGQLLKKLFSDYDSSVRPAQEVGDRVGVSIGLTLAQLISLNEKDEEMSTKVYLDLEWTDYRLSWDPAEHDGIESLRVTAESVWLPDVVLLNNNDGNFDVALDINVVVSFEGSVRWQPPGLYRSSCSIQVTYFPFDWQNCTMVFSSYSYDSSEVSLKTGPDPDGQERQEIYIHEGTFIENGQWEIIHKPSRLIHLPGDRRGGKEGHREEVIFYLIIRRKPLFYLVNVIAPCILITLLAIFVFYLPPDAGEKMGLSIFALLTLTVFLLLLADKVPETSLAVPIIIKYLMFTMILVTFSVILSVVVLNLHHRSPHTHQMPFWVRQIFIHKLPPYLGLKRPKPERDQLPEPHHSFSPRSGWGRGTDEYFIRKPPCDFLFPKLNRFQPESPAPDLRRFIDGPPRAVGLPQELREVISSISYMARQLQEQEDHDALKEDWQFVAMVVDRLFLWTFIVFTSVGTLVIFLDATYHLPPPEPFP
Description: as §1
Binding Assays at α1β1γδ Subtype of Nicotinic Acetylcholine Receptors
Affinity of the compounds of the present invention to α1βγδ subtype of nicotinic acetylcholine receptors was measured by the following method, which was modified method described by Garcha H. S., Thomas P., Spivak C.
(1) Preparation of Rat Skeletal Muscles Containing α1β1γδ Subtype of Nicotinic Acetylcholine Receptors
The substantially same animals described in the Biological Experiment 1 were used.
Isolation of α1β1γδ subtype of nicotinic acetylcholine receptors was performed as follow. That is, rat posterior skeletal muscles were isolated just after sacrificed by decapitation, washed with ice-cooled saline solution and then frozen at −80° C. with liquid nitrogen and stored till using. After thawing the frozen muscles, tissue was homogenized (40% w/v) with buffer solution [2.5 mM of sodium phosphate buffer (pH:7.2), 90 mM of NaCl, 2 mM of KCl, 1 mM of EDTA, 2 mM of benzamidine, 0.1 mM of benzethonium chloride, […], 0.01% of sodium azide] in Waring blender (Waring blender 34BL97; WARING PRODUCTS DIVISION DYNAMICS CORPORATION OF AMERICA) for 60 seconds. The homogenate were centrifuged under 20,000×G for 60 minutes at 4° C. The supernatant was separated and the resulting pellet was added to the same buffer (1.5 ml/g wet weight), and homogenized under the same conditions. Triton X100 (2% w/v) was added and the mixture was stirred for 3 hours at 4° C. The centrifugation at 100,000×G for 60 minutes at 4° C. yielded the rat muscle extract as supernatant. This was stored at 4° C. for up to 4 weeks, and used for binding assays at receptors.
(2) Experiments of α1β1γδSubtype of Nicotinic Acetylcholine Receptors Binding
Receptors binding experiments were performed as follow. That is, the extract of rat muscle containing 600-900 μg of protein was added to test tubes containing test compounds and incubated for 15 minutes at 37° C. Then, to this mixture was added 1 nM of [^3H]-α-bungarotoxin (α-Bgt) and further incubated for 2 hours. The samples were isolated by vacuum filtration onto Whatman GF/B filters, which were prerinsed with 0.5% polyethylenimine just prior to sample filtration, using Brandel multi manifold cell harvester. The filters were rapidly rinsed with washing solution (10 mM of KH2PO4, 150 mM of NaCl, pH 7.2, room temperature) (5×1 ml). The filters were counted in 3 ml of clearsol I (Nacalai Tesque Inc.). Determination of nonspecific binding was incubated in the presence of 1 μM α-Bgt.
In the receptor binding experiments, said buffer solution was added for adjusting the final concentration of BSA to be 0.05%.
Analyses of the experimental results were conducted by the same way as described in the Biological Experiment 1.

[3] = rat brain membrane, [3H]-cytisine (2 nM), read-out: Affinities for receptors Ki α4β2
[4] = at 1 μM of test compound, rat brain membrane
[5] = at 10 μM of test compound, rat brain membrane

| Structure (SMILES) | Ki [1, 3] | Ki [2] | remaining activity at 100 µM [2] | remaining activity at 1000 µM [2] | Ki [1] | control % of [3H]-cytisine binding [1, 4] | control % of [3H]-cytisine binding [1, 5] |
| --- | --- | --- | --- | --- | --- | --- | --- |
| Cc1ccc(Cn2ccsc2=N)cc1 [Compound 63, 2-imino-3-(4-methylbenzyl)-2,3-dihydrothiazole] | 160 nM | 364000 nM |  |  |  |  |  |
| N=C1CCCCN1Cc1ccc(Cl)nc1 [Compound 15, 1-(6-chloro-3-pyridyl)methyl-2-iminopiperidine] | 4.8 nM |  | 21% | 4% |  |  |  |
| Cc1ccc(Cn2c(C)csc2=N)cn1 [Compound 39, 2-imino-4-methyl-3-(6-methyl-3-pyridyl)methyl-2,3-dihydrothiazole] |  | 10800 nM |  |  | 30.5 nM |  |  |
| N=C1SCCN1Cc1cccnn1 [Compound 49, 2-imino-3-(3-pyridazinyl)methylthiazolidine] |  |  | 18% | 14% |  | (62%, | 16%) |
| N=c1sccn1Cc1cccc([N+](=O)[O-])c1 [Compound 61, 2-imino-3-(3-nitrobenzyl)-2,3-dihydrothiazole] |  | 219000 nM |  |  | 65.4 nM |  |  |
| N=c1scc(-c2ccc(Cl)cc2)n1Cc1ccc(Cl)nc1 [Compound 42, 4-(4-chlorophenyl)-3-(6-chloro-3-pyridyl)methyl-2-imino-2,3-dihydrothiazole] |  |  | 75% | 35% | 290 nM |  |  |
| Nc1nccn1Cc1ccc(Cl)cc1 [Compound 58, 2-amino-i-(4-chlorobenzyl)imidazole] |  |  | 62% | 37% |  | (62%, | 16%) |
| Cc1cc(Cn2c(C)csc2=N)on1 [Compound 36, 2-imino-4-methyl-3-(3-methyl-5-isoxazolyl)methyl-2,3-dihydrothiazole] |  |  | 10% | 2% | 263 nM |  |  |
| N=c1sccn1Cc1c[nH]c2ncccc12 [Compound 66] |  | 184000 nM |  |  | 16.1 nM |  |  |
| Cc1cn(Cc2ccc(Cl)nc2)c(=N)s1 [Compound 3, 3-(6-chloro-3-pyridyl)methyl-2-imino-5-methyl-2,3-dihydrothiazole] |  |  | 69% | 28% | 5.8 nM |  |  |
| Nc1nccn1Cc1cnc(Cl)c(Cl)c1 [Compound 54, 2-amino-1-(5,6-dichloro-3-pyridyl)methylimidazole] |  |  | 113% | 52% | 9.72 nM |  |  |
| N#Cc1ccc(Cn2ccsc2=N)cc1 [Compound 65, 3-(4-cyanobenzyl)-2-imino-2,3-dihydrothiazole] |  | 311000 nM |  |  | 181 nM |  |  |
| N=c1ccc(Cl)cn1Cc1ccc(Cl)nc1 [Compound 22, 5-chloro-1-(6-chloro-3-pyridyl)methyl-2-imino-1,2-dihydropyridine] |  |  | 75% | 28% | 33.7 nM |  |  |
| Cc1sc(=N)n(Cc2ccc(Cl)nc2)c1C [Compound 20, 3-(6-chloro-3-pyridyl)methyl-2-imino-4,5-dimethyl-2,3-dihydrothiazole] |  |  | 96% | 45% | 7.56 nM |  |  |
| N=c1ncccn1Cc1ccc(Cl)nc1 [Compound 10, 1-(6-chloro-3-pyridyl)methyl-2-imino-1,2-dihydropyrimidine] |  | 347000 nM |  |  | 8.7 nM |  |  |
| N=c1ccccn1Cc1cccnc1 [Compound 26, 2-imino-1-(3-pyridyl)methyl-1,2-dihydropyridine] |  | 41600 nM |  |  | 28.2 nM |  |  |
| Cc1csc(=N)n1Cc1cncc(Br)c1 [Compound 30, 3-(5-bromo-3-pyridyl)methyl-2-imino-4-methyl-2,3-dihydrothiazole] |  | 22500 nM |  |  | 26.7 nM |  |  |
| N=c1sc(-c2ccccc2)cn1Cc1ccc(Cl)nc1 [Compound 40, 3-(6-chloro-3-pyridyl)methyl-2-imino-5-phenyl-2,3-dihydrothiazole] |  |  | 71% | 35% | 355 nM |  |  |
| Cc1csc(=N)n1Cc1ccc(F)nc1 [Compound 18, 3-(6-fluoro-3-pyridyl)methyl-2-imino-4-methyl-2,3-dihydrothiazole] |  | 5800 nM |  |  | 10.8 nM |  |  |
| Cc1nc(N)n(Cc2ccc(Cl)nc2)c1C [Compound 51, 2-amino-1-(6-chloro-3-pyridyl)methyl-4,5-dimethylimidazole] |  |  | 103% | 53% |  | (96% | 33%) |
| Cc1ccn(Cc2ccc(Cl)nc2)c(=N)c1 [Compound 25, 1-(6-chloro-3-pyridyl)methyl-2-imino-4-methyl-1,2-dihydropyridine] |  |  | 90% | 58% | 171 nM |  |  |
| N=c1scc(-c2ccccc2)n1Cc1ccc(Cl)nc1 [Compound 41, 3-(6-chloro-3-pyridyl)methyl-2-imino-4-phenyl-2,3-dihydrothiazole] |  |  | 79% | 30% | 32 nM |  |  |
| Cc1cccn(Cc2ccc(Cl)nc2)c1=N [Compound 23, 1-(6-chloro-3-pyridyl)methyl-2-imino-3-methyl-1,2-dihydropyridine] |  |  | 89% | 52% | 221 nM |  |  |
| N=c1ccc([N+](=O)[O-])cn1Cc1ccc(Cl)nc1 [Compound 47, 1-(6-chloro-3-pyridyl)methyl-2-imino-5-nitro-1,2-dihydropyridine] |  |  | 93% | 73% | 227 nM |  |  |
| N=c1ccc(-c2ccccc2)nn1Cc1cccnc1 [Compound 45, 3-imino-6-phenyl-2-(3-pyridyl)methyl-2,3-dihydropyridazine] |  |  | 18% | 6% | 143 nM |  |  |
| Cc1ccc(=N)n(Cc2ccc(Cl)nc2)c1 [Compound 24, 1-(6-chloro-3-pyridyl)methyl-2-imino-5-methyl-1,2-dihydropyridine] |  |  | 80% | 36% | 48.6 nM |  |  |
| CN1CCCC1c1cccnc1 (single isomer, unassigned; (-)) [Nicotine, (−)-nicotine, reference compound] |  | 182000 nM |  |  |  |  |  |
